Experimental data taken from US20260297094A1, “Tetracyclic Compounds as SMARCA2 and/or SMARCA4 Degraders” (Aurigene Oncology Limited, priority 2023, published 2026).
pEC50: −log10 of the molar value. Structures can show the parent of a compound that is named as a salt.

Legend:
Format in all cases: cell-based
SK-MEL-5 cells = assay: Anti proliferative activity in SK-MEL-5 cells by Cell Titer Glo (Promega) assay; conditions: Homo sapiens, retreatment on Day 4, terminated on day 8, CellTiter-Glo
Protocol: Example-P1: Determination of Anti Proliferative Activity of Compounds in Cell Lines SK-MEL-5 by Cell Titer Glo® (Promega) Assay
Cells were seeded into 96-well plates and the plate was incubated in 37 degrees incubator overnight. The next day, compounds were diluted 3-fold to cover 9-point concentration range in DMSO. Intermediate plate dilution was prepared in media followed with compound treatment in cells. Retreatment of cells with compound dilutions was performed on Day 4 and assay was terminated on day 8 for SK-MEL-5 cells using CellTiter-Glo and the plate was kept on orbital shaker for 20 minutes at RT. Assay was terminated on day 6 for RERF-LC-A1 without a compound retreatment. Luminescence signal was recorded on VICTOR^3 instrument. Percent inhibition of proliferation was calculated at each concentration and plotted against the compound concentration. EC50 value was calculated using GraphPad® software.

SMARCA2 = biological target: T1, SMARCA2 (Homo sapiens, UniProt P51531); assay: SMARCA2 degradation in MV-4-11 cells by Western blot; conditions: MV4-11, 16 h, at 100 nM, vs DMSO, read-out: Percent degradation SMARCA2
T1 construct: endogenous in cells; host or cells: MV-4-11 (CRL-9591)
T1 sequence (P51531 whole entry): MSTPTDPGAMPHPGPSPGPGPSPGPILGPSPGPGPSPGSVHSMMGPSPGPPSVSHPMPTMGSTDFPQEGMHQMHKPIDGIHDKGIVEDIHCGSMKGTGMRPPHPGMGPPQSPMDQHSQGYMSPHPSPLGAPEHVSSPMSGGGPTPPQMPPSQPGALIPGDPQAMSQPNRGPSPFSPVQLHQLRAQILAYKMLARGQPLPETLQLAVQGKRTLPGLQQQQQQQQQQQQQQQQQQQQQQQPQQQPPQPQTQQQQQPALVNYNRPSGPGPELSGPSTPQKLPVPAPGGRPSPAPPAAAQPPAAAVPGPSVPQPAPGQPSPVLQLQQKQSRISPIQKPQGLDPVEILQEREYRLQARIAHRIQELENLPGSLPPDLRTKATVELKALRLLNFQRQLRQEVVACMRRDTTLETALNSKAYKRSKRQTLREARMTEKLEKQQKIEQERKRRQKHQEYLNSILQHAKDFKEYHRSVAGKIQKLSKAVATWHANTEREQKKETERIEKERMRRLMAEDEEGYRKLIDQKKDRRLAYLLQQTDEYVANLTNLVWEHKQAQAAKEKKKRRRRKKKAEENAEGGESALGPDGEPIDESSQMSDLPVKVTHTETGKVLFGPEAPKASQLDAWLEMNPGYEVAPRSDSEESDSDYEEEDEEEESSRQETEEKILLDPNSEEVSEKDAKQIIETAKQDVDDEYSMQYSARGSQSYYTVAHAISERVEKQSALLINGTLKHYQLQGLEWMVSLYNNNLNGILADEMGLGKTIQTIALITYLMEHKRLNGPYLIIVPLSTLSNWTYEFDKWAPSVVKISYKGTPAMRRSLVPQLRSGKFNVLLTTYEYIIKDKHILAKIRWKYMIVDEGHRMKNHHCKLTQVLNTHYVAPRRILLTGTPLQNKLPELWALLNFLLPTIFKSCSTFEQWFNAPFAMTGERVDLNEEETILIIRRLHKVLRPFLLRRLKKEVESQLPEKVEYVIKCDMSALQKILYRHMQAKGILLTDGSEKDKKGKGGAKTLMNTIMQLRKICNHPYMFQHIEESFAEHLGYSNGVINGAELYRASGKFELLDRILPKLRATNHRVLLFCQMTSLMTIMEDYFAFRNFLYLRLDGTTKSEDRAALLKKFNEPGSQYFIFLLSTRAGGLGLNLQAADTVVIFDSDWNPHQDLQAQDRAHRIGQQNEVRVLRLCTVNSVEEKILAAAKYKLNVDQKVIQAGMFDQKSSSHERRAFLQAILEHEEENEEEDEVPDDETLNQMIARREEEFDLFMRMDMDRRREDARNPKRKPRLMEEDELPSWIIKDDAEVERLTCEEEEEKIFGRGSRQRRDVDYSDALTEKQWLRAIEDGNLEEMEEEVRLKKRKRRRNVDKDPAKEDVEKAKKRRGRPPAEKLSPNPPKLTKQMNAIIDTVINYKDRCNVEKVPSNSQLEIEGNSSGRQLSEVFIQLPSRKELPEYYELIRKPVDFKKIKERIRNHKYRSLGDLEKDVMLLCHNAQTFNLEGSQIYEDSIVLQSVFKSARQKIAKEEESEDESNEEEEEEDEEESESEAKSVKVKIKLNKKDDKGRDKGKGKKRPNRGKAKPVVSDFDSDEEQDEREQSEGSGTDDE
Protocol: (§1) Example-P3: Determination of SMARCA2 and SMARCA4 Degradation in MV-4-11 Cells by Western Blot
(§2) MV-4-11 (CRL-9591™) cells were plated in 6 well plates using complete Iscove's Modified Dulbecco's Medium. On the third day, compounds of present invention were added to cells from 10 mM stocks made in DMSO (Sigma Cat no. D2650). Each concentration of compound was tested with DMSO not exceeding final percentage of 0.1 in the cells. Cells were incubated with the compound for 16 hours followed by harvesting with 1×RIPA lysis buffer (Thermo Fischer, catalogue number #89900) containing protease inhibitor cocktail (Sigma catalogue number #P-8340). Equal amount of protein was loaded on SDS PAGE gel for electrophoresis. Western blot was carried out for detection of either SMARCA2 (Cell signalling technologies, catalogue number #11966) or SMARCA4 antibody (Cell signalling technologies, catalogue number #52251). Beta-Tubulin antibody (Cell signalling technologies, catalogue number #86298) was used as loading control. Percentage of SMARCA2 or SMARCA4 degradation was calculated using formula % Degradation=100−(normalized band intensity in treated sample/normalized band intensity in DMSO sample)*100. Here, “ND” refers to Not determined.

SMARCA4 = biological target: T2, SMARCA4 (Homo sapiens, UniProt P51532); assay: SMARCA4 degradation in MV-4-11 cells by Western blot; conditions: MV4-11, at 100 nM, 16 hours, vs DMSO, read-out: Percent degradation SMARCA4
T2 construct: endogenous in cells; host or cells: MV-4-11 (CRL-9591)
T2 sequence (P51532 whole entry): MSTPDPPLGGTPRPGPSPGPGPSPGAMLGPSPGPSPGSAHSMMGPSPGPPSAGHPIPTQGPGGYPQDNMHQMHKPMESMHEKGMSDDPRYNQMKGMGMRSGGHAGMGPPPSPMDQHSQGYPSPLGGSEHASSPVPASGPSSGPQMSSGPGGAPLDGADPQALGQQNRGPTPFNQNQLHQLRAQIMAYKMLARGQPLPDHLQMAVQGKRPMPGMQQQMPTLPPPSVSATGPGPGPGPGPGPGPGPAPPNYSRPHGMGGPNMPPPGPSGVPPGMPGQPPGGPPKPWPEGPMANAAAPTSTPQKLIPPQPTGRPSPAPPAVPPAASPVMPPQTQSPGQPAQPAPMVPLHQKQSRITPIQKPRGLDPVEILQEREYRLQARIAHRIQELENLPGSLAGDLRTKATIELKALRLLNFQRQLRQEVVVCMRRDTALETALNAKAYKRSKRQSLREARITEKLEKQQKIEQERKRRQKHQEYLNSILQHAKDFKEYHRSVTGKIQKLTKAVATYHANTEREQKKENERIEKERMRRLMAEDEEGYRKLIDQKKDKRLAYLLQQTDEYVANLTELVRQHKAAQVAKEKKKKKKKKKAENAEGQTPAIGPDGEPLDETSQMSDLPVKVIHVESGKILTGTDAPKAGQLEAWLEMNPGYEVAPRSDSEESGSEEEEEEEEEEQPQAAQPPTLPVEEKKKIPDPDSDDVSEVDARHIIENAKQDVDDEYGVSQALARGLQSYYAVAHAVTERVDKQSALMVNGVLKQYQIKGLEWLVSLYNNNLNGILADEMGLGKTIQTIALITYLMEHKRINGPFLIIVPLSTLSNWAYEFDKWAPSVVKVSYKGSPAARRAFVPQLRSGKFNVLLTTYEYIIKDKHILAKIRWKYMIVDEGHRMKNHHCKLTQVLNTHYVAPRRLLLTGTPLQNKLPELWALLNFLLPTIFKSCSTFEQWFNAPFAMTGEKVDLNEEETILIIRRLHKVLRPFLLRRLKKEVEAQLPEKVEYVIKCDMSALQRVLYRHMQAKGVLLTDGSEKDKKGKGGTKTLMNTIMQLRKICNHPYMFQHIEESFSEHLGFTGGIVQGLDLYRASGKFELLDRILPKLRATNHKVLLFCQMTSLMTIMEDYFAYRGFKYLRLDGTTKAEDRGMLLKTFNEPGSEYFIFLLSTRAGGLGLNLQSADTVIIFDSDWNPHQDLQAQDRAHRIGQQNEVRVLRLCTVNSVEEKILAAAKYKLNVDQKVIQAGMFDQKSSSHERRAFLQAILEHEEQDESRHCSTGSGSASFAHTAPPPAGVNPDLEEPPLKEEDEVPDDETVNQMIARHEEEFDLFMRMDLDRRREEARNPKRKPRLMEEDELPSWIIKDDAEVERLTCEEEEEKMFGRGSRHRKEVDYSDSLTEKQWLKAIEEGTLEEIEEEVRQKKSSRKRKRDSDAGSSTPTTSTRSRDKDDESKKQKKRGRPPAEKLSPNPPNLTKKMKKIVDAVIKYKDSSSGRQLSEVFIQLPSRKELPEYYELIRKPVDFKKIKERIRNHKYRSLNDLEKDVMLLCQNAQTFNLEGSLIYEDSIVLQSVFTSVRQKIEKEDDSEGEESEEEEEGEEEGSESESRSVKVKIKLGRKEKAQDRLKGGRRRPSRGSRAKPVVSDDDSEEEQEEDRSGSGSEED
Protocol: as §1, §2

MV-4-11 cells = assay: Anti proliferative activity in MV-4-11 cells by Cell Titer Glo (Promega) assay; conditions: Homo sapiens, MV4-11, 72 h, 3 days, CellTiter-Glo
Protocol: Example-P2: Determination of Anti Proliferative Activity of Compounds in Cell Lines MV-4-11 by Cell Titer Glo® (Promega) Assay
MV-4-11 (CRL-9591™) cells were seeded in 96 well plate flat black clear bottom plates (Corning, Cat. No 3904) using complete DMEM Medium. Next day, selected compounds of the present invention were added to cells from 10 mM stocks made in DMSO (Sigma Cat no. D2650). Each concentration of compound was tested in triplicate with DMSO concentration at a final percentage not exceeding 0.3 in the cells. After the incubation of MV-4-11 cells with compound for 3 days; assay was terminated using 100 μl of CellTiter Glo® reagent (Promega, Cat. no G7572). CellTiter-Glo® Luminescent reagent determines the number of viable cells based on quantitation of ATP present which is an indicator of cell number and metabolic activity. Luminescence readings were taken in Victor-5 instrument. Percent inhibition of proliferation was calculated using formula, % inhibition=100−(luminescence value of test/luminescence value of DMSO control)*100. DMSO control (0%)=Cells in complete media with DMSO; blank=Media alone containing DMSO. EC50 was calculated using graph pad prism software.

SMILES | pEC50 (SK-MEL-5 cells) | inhibition at 0.1 µM (SMARCA2) [%] | inhibition at 0.1 µM (SMARCA4) [%] | pEC50 (MV-4-11 cells)
Cn1c2cc(N3CCC(N4CCC(c5ccc6c(c5)CN(C5CCC(=O)NC5=O)C6=O)CC4)CC3)ccc2n2c3cccc(Br)c3c(=O)nc12 (stereo not drawn) [Compound 14, 3-(5-(1′-(4-bromo-7-methyl-5-oxo-5,7-dihydrobenzo[4,5]imidazo[1,2-a]quinazolin-9-yl)-[1,4′-bipiperidin]-4-yl)-1-oxoisoindolin-2-yl)piperidine-2,6-dione] | > 8.00 | 100 | 94 | > 8.00
Cn1c2cc(N3CCC(N4CCC(c5ccc(NC6CCC(=O)NC6=O)cc5F)CC4)CC3)ccc2n2c3cccc(Br)c3c(=O)nc12 (stereo not drawn) [Compound 16, 3-((4-(1′-(4-bromo-7-methyl-5-oxo-5,7-dihydrobenzo[4,5]imidazo[1,2-a]quinazolin-9-yl)-[1,4′-bipiperidin]-4-yl)-3-fluorophenyl)amino)piperidine-2,6-dione] | > 8.00 | 99 | 100 | > 8.00
Cn1c2cc(N3CCC(N4CCC(c5ccc(C6CCC(=O)NC6=O)cc5)CC4)CC3)ccc2n2c3cccc(Br)c3c(=O)nc12 (stereo not drawn) [Compound 17, 3-(4-(1′-(4-bromo-7-methyl-5-oxo-5,7-dihydrobenzo[4,5]imidazo[1,2-a]quinazolin-9-yl)-[1,4′-bipiperidin]-4-yl)phenyl)piperidine-2,6-dione] | > 8.00 | 68 | 24 | > 8.00
Cn1c2cc(N3CCC(N4CCC(c5ccc(C6CCC(=O)NC6=O)cc5)CC4)CC3)ccc2n2c3cccc(Cl)c3c(=O)nc12 (stereo not drawn) [Compound 18, 3-(4-(1′-(4-chloro-7-methyl-5-oxo-5,7-dihydrobenzo[4,5]imidazo[1,2-a]quinazolin-9-yl)-[1,4′-bipiperidin]-4-yl)phenyl)piperidine-2,6-dione] | > 8.00 | 98 | 95 | > 8.00
O=C1CCC(c2ccc(C3CCN(C4CCN(c5ccc6c(c5)n(C5CCCC5)c5nc(=O)c7c(Cl)cccc7n65)CC4)CC3)cc2)C(=O)N1 (stereo not drawn) [Compound 22, 3-(4-(1′-(4-chloro-7-cyclopentyl-5-oxo-5,7-dihydrobenzo[4,5]imidazo[1,2-a]quinazolin-9-yl)-[1,4′-bipiperidin]-4-yl)phenyl)piperidine-2,6-dione-HCl salt] | > 8.00 | 89 | 56 | > 8.00
O=C1CCC(Nc2ccc(C3CCN(C4CCN(c5ccc6c(c5)n(C5CCCC5)c5nc(=O)c7c(Cl)cccc7n65)CC4)CC3)c(F)c2)C(=O)N1 (stereo not drawn) [Compound 23, 3-((4-(1′-(4-chloro-7-cyclopentyl-5-oxo-5,7-dihydrobenzo[4,5]imidazo[1,2-a]quinazolin-9-yl)-[1,4′-bipiperidin]-4-yl)-3-fluorophenyl)amino)piperidine-2,6-dione-HCl salt] | > 8.00 | 99 | 98 | > 8.00
Nc1cccc2c1c(=O)nc1n(C3CCCC3)c3cc(N4CCC(N5CCN(c6ccc(C7CCC(=O)NC7=O)cc6)CC5)CC4)ccc3n21 (stereo not drawn) [Compound 26, 3-(4-(4-(1-(4-amino-7-cyclopentyl-5-oxo-5,7-dihydrobenzo[4,5]imidazo[1,2-a]quinazolin-9-yl)piperidin-4-yl)piperazin-1-yl)phenyl)piperidine-2,6-dione-HCl salt] | 7.00 to 8.00 | 68 | 33 | < 7.00
Cn1c2cc(N3CCC(N4CCN(c5ccc(C6CCC(=O)NC6=O)cc5)CC4)CC3)ccc2n2c3cccc(N)c3c(=O)nc12 (stereo not drawn) [Compound 32, 3-(4-(4-(1-(4-amino-7-methyl-5-oxo-5,7-dihydrobenzo[4,5]imidazo[1,2-a]quinazolin-9-yl)piperidin-4-yl)piperazin-1-yl)phenyl)piperidine-2,6-dione-HCl salt] | < 7.00 | 59 | 38 | < 7.00
O=C1CCC(Nc2ccc(N3CCN(C4CCN(c5ccc6c(c5)n(C5CCCC5)c5nc(=O)c7c(Cl)cccc7n65)CC4)CC3)c(F)c2)C(=O)N1 (stereo not drawn) [Compound 35, 3-((4-(4-(1-(4-chloro-7-cyclopentyl-5-oxo-5,7-dihydrobenzo[4,5]imidazo[1,2-a]quinazolin-9-yl)piperidin-4-yl)piperazin-1-y1)-3-fluorophenyl)amino)piperidine-2,6-dione-TFA salt] | > 8.00 | 98 | 91 | < 7.00

The next lines start with the values.

pEC50 (SK-MEL-5 cells) | inhibition at 0.1 µM (SMARCA2) [%] | inhibition at 0.1 µM (SMARCA4) [%] | pEC50 (MV-4-11 cells) | SMILES
> 8.00 | 96 | 95 | > 8.00 | Cn1c2cc(N3CCC(N4CCC(c5ccc6c(c5)CN(C5CCC(=O)NC5=O)C6=O)CC4)CC3)ccc2n2c3cccc(N)c3c(=O)nc12 (stereo not drawn) [Compound 15, 3-(5-(1′-(4-amino-7-methyl-5-oxo-5,7-dihydrobenzo[4,5]imidazo[1,2-a]quinazolin-9-yl)-[1,4′-bipiperidin]-4-yl)-1-oxoisoindolin-2-yl)piperidine-2,6-dione-HCl salt]
7.00 to 8.00 | 80 | 81 | < 7.00 | Cn1c2cc(N3CCC(N4CCC(c5ccc(C6CCC(=O)NC6=O)cc5)CC4)CC3)ccc2n2c3cccc(N)c3c(=O)nc12 (stereo not drawn) [Compound 20, 3-(4-(1′-(4-amino-7-methyl-5-oxo-5,7-dihydrobenzo[4,5]imidazo[1,2-a]quinazolin-9-yl)-[1,4′-bipiperidin]-4-yl)phenyl)piperidine-2,6-dione]
7.00 to 8.00 | 86 | 75 | < 7.00 | CC(C)n1c2cc(N3CCC(N4CCC(c5ccc(C6CCC(=O)NC6=O)cc5)CC4)CC3)ccc2n2c3cccc(N)c3c(=O)nc12 (stereo not drawn) [Compound 21, 3-(4-(1′-(4-amino-7-isopropyl-5-oxo-5,7-dihydrobenzo[4,5]imidazo[1,2-a]quinazolin-9-yl)-[1,4′-bipiperidin]-4-yl)phenyl)piperidine-2,6-dione]
> 8.00 | 67 | 33 | 7.00 to 8.00 | Nc1cccc2c1c(=O)nc1n(C3CCCC3)c3cc(N4CCC(N5CCC(c6ccc(C7CCC(=O)NC7=O)cc6)CC5)CC4)ccc3n21 (stereo not drawn) [Compound 25, 3-(4-(1′-(4-amino-7-cyclopentyl-5-oxo-5,7-dihydrobenzo[4,5]imidazo[1,2-a]quinazolin-9-yl)-[1,4′-bipiperidin]-4-yl)phenyl)piperidine-2,6-dione-HCl salt]
> 8.00 | 96 | 97 | > 8.00 | CC(C)n1c2cc(N3CCC(N4CCC(c5ccc(NC6CCC(=O)NC6=O)cc5F)CC4)CC3)ccc2n2c3cccc(Cl)c3c(=O)nc12 (stereo not drawn) [Compound 29, 3-((4-(1′-(4-chloro-7-isopropyl-5-oxo-5,7-dihydrobenzo[4,5]imidazo[1,2-a]quinazolin-9-yl)-[1,4′-bipiperidin]-4-yl)-3-fluorophenyl)amino)piperidine-2,6-dione-HCl salt]
> 8.00 | 90 | 64 | < 7.00 | O=C1CCC(N2Cc3cc(N4CCN(C5CCN(c6ccc7c(c6)n(C6CCCC6)c6nc(=O)c8c(Cl)cccc8n76)CC5)CC4)ccc3C2=O)C(=O)N1 (stereo not drawn) [Compound 30, 3-(5-(4-(1-(4-chloro-7-cyclopentyl-5-oxo-5,7-dihydrobenzo[4,5]imidazo[1,2-a]quinazolin-9-yl)piperidin-4-yl)piperazin-1-yl)-1-oxoisoindolin-2-yl)piperidine-2,6-dione-HCl salt]
